In patent US20170143748A1, “ANTI-TUMOR PHARMACEUTICAL APPLICATION OF PENTACYCLIC TRITERPENE SAPONIN COMPOUNDS OF SZECHUAN MELANDIUM ROOT” (priority 2014, published 2017):
Where “and” joins values, the source holds several entries; their conditions need not be identical. Equal values may be shown once.

Legend:
HT29 human colon cancer = experiment: Anti-HT29 human colon cancer in BALB/c (nu/nu) nude mice; type: in vivo; design: body weight of HT29-bearing nude mice / tumor volume of HT29-bearing nude mice / Tumor mass: unit not given here; conditions: for body weight of HT29-bearing nude mice / tumor volume of HT29-bearing nude mice: Sc; for Inhibition rate: from average tumor mass vs model; for Tumor index: tumor mass/body weight
Description: Human resources Colon cancer cell line HT29 was cultured in the same condition as the experiment 4. […] Mice were randomly assigned into 7 groups: […] The body weight and the tumor volume were measured and recorded weekly. The tumor volume was calculated according to the formula below. […] The tumors were departed and weighed.

MCF-7 = experiment: MTT inhibition of tumor cells in vitro (Example 3); type: cell-based, Human; conditions: 40 μg/mL, 48 hours
Description: (§1) Human resources tumor cell line […], […], HT29, MCF-7 and A875 were provided by Cancer Hospital, Chinese Academy of Medical Sciences.
(§2) Cells were passaged every 2 or 3 days, and all the experiments were carried out on exponentially growing cells.
(§3) All cells were cultured in a humidified atmosphere (5% CO2 and […]), and passaged every 2 or 3 days. Cells were harvested on exponentially growing phase, and cell suspension was prepared with 2×10^4 cells/mL, added with 100 μL per well of 96-well plates, and cultured for 24 h in incubator. 100 μL medium without cells was added per well as blank group.
(§4) Compound (1), (2), (3), (4), (7) or (8) was dissolved in DMSO respectively, and diluted with 1640 medium at a final concentration of 400 μg/mL, so as to that of the Cisplatin. Cells were divided into 9 groups, they were blank group, model group, Compound (1), (2), (3), (4), (7) and (8) groups, and Cisplatin group as the positive one, 6 wells per group.
(§5) Before drug administration, supernatant of each well was removed and fresh 1640 medium was added, 180 μL per well. Compounds and Cisplatin were added with 20 μL per well respectively at a final concentration of 40 μg/mL. Wells of blank and model groups were added with 0.5% DMSO, 20 μL per well. 48 hours later, 20 μL MTT was added per well and continued to culture for 4 hours, then the supernatant was replaced carefully and DMSO was added with 150 μL per well to end the experiment. The 96-well plates were shaken for 10 mins and read the absorbance at 490 nm. The Inhibition rate was calculated.
(§6) Inhibition rate=[(ODmodel−ODblank)−(ODdrugs−ODblank)]/(ODmodel−ODblank)×100%
(§7) The MTT experiment was repeated three times.

A875 = experiment: MTT inhibition of tumor cells in vitro (Example 3); type: cell-based, Human; conditions: 40 μg/mL, 48 hours
Description: as §1, §2, §3, §4, §5, §6, §7

[1] = tested on: BGC823 human gastric adenocarcinoma; experiment: Anti-BGC823 human gastric adenocarcinoma in BALB/c (nu/nu) nude mice; type: in vivo; design: tumor volume of BGC823-bearing nude mice / Tumor mass: unit not given here; conditions: for body weight of BGC823-bearing nude mice / tumor volume of BGC823-bearing nude mice: Sc; for body weight of BGC823-bearing nude mice: in g (unit assumed)
Description: Human resources gastric adenocarcinoma cell line BGC823 was cultured in the same condition as the experiment 4.
The body weight and the tumor volume were measured and recorded weekly. The tumor volume was calculated according to the formula below.
Tumors were departed and weighed. Tumor Index and inhibition rate were calculated as below: […]

HepG2 human heptoma = experiment: Anti-HepG2 human heptoma in BALB/c (nu/nu) nude mice; conditions: for tumor volume of HepG2-bearing nude mice: Sc
Description: 70 male BALB/c (nu/nu) nude mice (18-20 g, License NO. SCXK (BJ) 2009-0017, National Institutes for Food and Drug Control.) were adaptively bred for one week, and then used in the following experiment.
Human resources hepatoma cell line HepG2 was cultured in RPMI-1640 medium containing 100 U/mL Penicillin and 100 μg/mL Streptomycin with 10% fetal bovine serum and maintained at 37° C. in a humidified atmosphere (5% CO2 and […]).
70 BALB/c (nu/nu) nude mice were adaptively bred for 1 week, HepG2 cells were inoculated subcutaneously into the back of nude mice, 1×10^7 cells per mouse. […] 3 days after inoculation, mice of every therapeutic group were all given the relevant compounds or drugs for 3 weeks, and others were given isodose physiological saline.
The body weight and the size of tumor were measured and recorded weekly. The tumor volume was calculated with the formula below:
tumor volume V=π/6×a×b^2 (a, b means the transverse and longitudinal length of tumor)
At the end of administration, mice were fastened for 8 hours, weighed the fasting body weight, dropped off eyeball to collect blood, centrifuged and collected serum for next experiment. The tumors were departed and weighed. Tumor Index and inhibition rate were calculated as below:
Tumor Index=Tumor mass (mg)/body weight of animal (g)
Inhibition rate=(Average tumor massControl group−Average tumor massadministration group)/Average tumor massControl group×100%
Mice in the model group were injected with sterile water (10 ml/kg BW), Sc. All the animals were treated at 9 am for 3 weeks.
Determination of body weights: Body weights of animals were weighed and recorded once a week.
Tumor measurement: The transverse and longitudinal lengths of tumor were measured with vernier caliper weekly.
End of the experiment: After mice being administrated for 3 weeks (21 days), the experiment was terminated.

HepG2 = experiment: MTT inhibition of tumor cells in vitro (Example 3); type: cell-based, Human; conditions: 40 μg/mL, 48 hours
HT29 = experiment: MTT inhibition of tumor cells in vitro (Example 3); type: cell-based, Human; conditions: 40 μg/mL, 48 hours
Description: as §1, §2, §3, §4, §5, §6, §7

BGC823 = experiment: MTT inhibition of tumor cells in vitro (Example 3); type: cell-based, Human; conditions: 40 μg/mL, 48 hours
Description: as §1, §2, §3, §4, §5, §6, §7

[2] = 1 W, mg/kg BW: total saponins 1.5, Compound 1, combination 1 & 19, PTX 20
[3] = 2 W, mg/kg BW: total saponins 1.5, Compound 1, combination 1 & 19, PTX 20
[4] = 3 W, mg/kg BW: total saponins 1.5, Compound 1, combination 1 & 19, PTX 20
[5] = HT29-bearing nude mice, after 3 weeks
[6] = 1 W, mg/kg BW: total saponins 1.5, Compound 1, combination 1 & 19, 5-FU 20
[7] = 2 W, mg/kg BW: total saponins 1.5, Compound 1, combination 1 & 19, 5-FU 20
[8] = 3 W, mg/kg BW: total saponins 1.5, Compound 1, combination 1 & 19, 5-FU 20

Compound | tumor volume of HT29-bearing nude mice (HT29 human colon cancer; [2]) | tumor volume of HT29-bearing nude mice (HT29 human colon cancer; [3]) | tumor volume of HT29-bearing nude mice (HT29 human colon cancer; [4]) | Inhibition rate (HT29 human colon cancer; [5]) | Tumor index (HT29 human colon cancer; [5]) | Inhibition rate, MCF-7 (MCF-7) | Inhibition rate, A875 (A875) | Inhibition rate, HepG2 (HepG2) | Inhibition rate, HT29 (HT29) | Inhibition rate, BGC823 (BGC823) | further results
CC(=O)O[C@H]1C(=O)[C@@]2(C)[C@H]([C@H](OC(=O)c3ccccc3)[C@]3(O)C[C@H](OC(=O)[C@H](O)[C@@H](NC(=O)c4ccccc4)c4ccccc4)C(C)=C1C3(C)C)[C@]1(OC(C)=O)CO[C@@H]1C[C@@H]2O [PTX, Paclitaxel, reference compound] | 943.55 ± 516.62 | 996.66 ± 347.05 | 801.38 ± 259.34 | 60.81% | 0.06 ± 0.03 |  |  |  |  |  | body weight of HT29-bearing nude mice (HT29 human colon cancer; 0 W, mg/kg BW: total saponins 1.5, Compound 1, combination 1 & 19, PTX 20): 20.60 ± 1.32; body weight of HT29-bearing nude mice (HT29 human colon cancer; [2]): 20.30 ± 1.68; body weight of HT29-bearing nude mice (HT29 human colon cancer; [3]): 19.80 ± 1.77; body weight of HT29-bearing nude mice (HT29 human colon cancer; [4]): 19.20 ± 1.37
sinocrassuloside VI [Compound (1)] | 1094.99 ± 678.00 | 907.89 ± 738.11 | 814.93 ± 450.73 | 50.44% | 0.05 ± 0.02 | 83.12 ± 2.33% | 88.02 ± 12.57% |  |  |  | body weight of BGC823-bearing nude mice ([1]; 0 W, mg/kg BW: total saponins 1.5, Compound 1, combination 1 & 19, 5-FU 20): 20.30 ± 1.06; tumor volume of BGC823-bearing nude mice [1, 6]: 850.16 ± 539.70; body weight of BGC823-bearing nude mice [1, 6]: 21.50 ± 1.18; tumor volume of BGC823-bearing nude mice [1, 7]: 997.88 ± 499.61; body weight of BGC823-bearing nude mice [1, 7]: 22.70 ± 1.16; tumor volume of BGC823-bearing nude mice [1, 8]: 845.04 ± 239.21; body weight of BGC823-bearing nude mice [1, 8]: 23.70 ± 1.06; Inhibition rate ([1]; BGC823-bearing nude mice, after 3 weeks, from average tumor mass vs model): 64.54% and 61.54%; Tumor mass ([1]; BGC823-bearing nude mice, after 3 weeks, mg/kg BW: total saponins 1.5, Compound 1, combination 1 & 19, 5-FU 20): 1.05 ± 0.36; Tumor index ([1]; BGC823-bearing nude mice, after 3 weeks, tumor mass/body weight): 0.04 ± 0.02; Tumor mass (HT29 human colon cancer; HT29-bearing nude mice, after 3 weeks, mg/kg BW: total saponins 1.5, Compound 1, combination 1 & 19, PTX 20): 1.15 ± 0.52; tumor volume of HepG2-bearing nude mice (HepG2 human heptoma; 1 W, mg/kg BW: total saponins 1.5, Compound 1, combination 1 & 39, Cytoxan 40): 922.51 ± 624.95; tumor volume of HepG2-bearing nude mice (HepG2 human heptoma; 2 W, mg/kg BW: total saponins 1.5, Compound 1, combination 1 & 39, Cytoxan 40): 1060.32 ± 570.38; tumor volume of HepG2-bearing nude mice (HepG2 human heptoma; 3 W, mg/kg BW: total saponins 1.5, Compound 1, combination 1 & 39, Cytoxan 40): 1033.33 ± 656.54; Inhibition rate (HepG2 human heptoma; HepG2-bearing nude mice, after 3 weeks, from average tumor mass vs model): 80.05%; Tumor mass (HepG2 human heptoma; HepG2-bearing nude mice, after 3 weeks, mg/kg BW: total saponins 1.5, Compound 1, combination 1 & 39, Cytoxan 40): 0.59 ± 0.29; Tumor index (HepG2 human heptoma; HepG2-bearing nude mice, after 3 weeks, tumor mass/body weight): 0.03 ± 0.01
sinocrassuloside VIII [Compound (3)] |  |  |  |  |  | 90.12 ± 7.43% | 68.35 ± 5.37% | 74.35 ± 1.51% | 56.62 ± 4.24% | 92.09 ± 1.13% | 
sinocrassuloside XII [Compound (7)] |  |  |  |  |  | 58.12 ± 6.26% | 55.64 ± 9.88% | 21.83 ± 1.53% | 62.67 ± 3.12% | 77.08 ± 5.73% | 
